# Values joined by “and” are separate entries in the source; they are usually repeats but may differ in a detail not shown here. Equal values may be shown once. Where a name gives a salt, the structure may show the parent alone.
# Columns and labels:
# Shay's ulcer = Shay's ulcer (pylorus ligation), inhibitory effect, rats; format: in vivo, rat (male Donryu strain); settings: P.O.; for Ulcer index (total area of all lesions) / % Inhibition: 1,000 mg/kg; for Ulcer index (total area of all lesions): immediately after pylorus ligation; for inhibition in vivo at 1000 mg/kg: 14 h, 1,000 mg/kg
# Description: (§1) It will be noted that as control compounds for the purposes of comparison, use was made of L-carnosine, L-glutamine, N-acetyl-L-glutamine aluminum and aluminum sucrose sulfate which are known to have an anti-ulcer effect. The anti-ulcer effects and degrees of toxicity of the N-acylcarnosine aluminum compounds according to the invention were determined using rats in which instances various gastric ulcer models of rats were utilized to estimate the anti-ulcer effects.
# Shay's ulcer: Groups of ten male Donryu strain rats each weighing 210 to 230 g were deprived of food for 48 hours. The pylorus of each rat was ligated according to the method of Shay et al [Gastroenterology, 5, 43-61 (1945)]. Each of the animals was allowed to stand abstained from food and water for further 14 hours and then sacrificed to remove its stomach. After collection of the gastric juice, the ulcerated area (mm^2) in the forestomach of each rat was measured under a dissecting microscope (10x). The total area (mm^2) of all the lesions of each rat was indicated as an ulcer index. Test medicine samples were given orally immediately after the pylorus ligation.
# Stress ulcer = Stress ulcer (water immersion restraint), inhibitory effect, rats; format: in vivo, rat (male Donryu strain); settings: P.O.; for Ulcer index (total length of all lesions): ten minutes before immersion; for % Inhibition: vs control of the same run
# Description: (§2) The anti-ulcer effects and degrees of toxicity of the N-acylcarnosine aluminum compounds according to the invention were determined using rats in which instances various gastric ulcer models of rats were utilized to estimate the anti-ulcer effects.
# Stress ulcer: Groups of ten male Donryu strain rats each weighing 240 to 260 g were placed in a stress cage which served to immobilize the animals therein and then immersed in a water bath of 23° C. on a level with the xiphoid process according to the method of K. Takagi et al [Jap. […] Seven hours after the immersion, each of the animals was withdrawn from the water bath and immediately sacrificed by a blow on the head, followed by removal of the stomach of each rat. The stomach was slightly inflated by injecting a 1% formalin solution and then immediately immersed in a 1% formalin solution, followed by incising the stomach along its greater curvature to measure the length (mm) of each lesion in the glandular portion under a dissecting microscope (10x). The total length (mm) of all the lesions of each rat was indicated as an ulcer index. Test medicine samples were given orally ten minutes before the immersion in water.
# [1] = tested on: Indomethacin-induced ulcer; experiment: Indomethacin-induced ulcer, inhibitory effect, rats; format: in vivo, rat (male Donryu strain); settings: 300 mg/kg, P.O.; for Ulcer index (total length of all lesions): ten minutes before pylorus ligation, indomethacin 25 mg/kg s.c.; for % Inhibition: vs control of the same run
# Description: as §1
# Indomethacin-induced ulcer: Groups of ten male Donryu strain rats each weighing 200 to 215 g were deprived of food for 24 hours. Then, the pylorus was ligated under ether anethesia, after which indomethacin was administered subcutaneously in an amount of 25 mg/kg to each rat. Seven hours after the administration, each of the animals was scarificed under ether anethesia to remove its stomach, followed by immersion in a 1% formalin solution for ten minutes. The stomach which had been semi-fixed was incised along its greater curvature, and the length (mm) of each lesion formed in the mucous membrane was measured under a dissecting microscope (10×). The total length (mm) of all the lesions of each rat was indicated as an ulcer index. Test medicine samples were given orally ten minutes before the pylorus legation.
# Histamine-induced ulcer = experiment: Histamine-induced ulcer, inhibitory effect, rats; format: in vivo, rat (male Donryu strain); settings: P.O.; for Ulcer index (total length of all lesions): before histamine phosphate 300 mg/kg i.p.; for % Inhibition: vs control of the same run
# Description: as §2
# Histamine-induced ulcer: Groups of ten male Donryu strain rats each weighing 210 to 230 g were deprived of food for 48 hours and then administered intraperitoneally with histamine phosphate (300 mg/kg). Four hours after the administration, each of the animals was sacrificed under ether anesthesia, followed by removal of the stomach and immersion in a 1% formalin solution for ten minutes. The stomach which had been semi-fixed was incised along the greater curvature, and the length (mm) of each lesion was measured under a dissecting microscope (10×). The total length (mm) of all the lesions of each rat was indicated as an ulcer index. Test medicine samples were given orally before the histamine administration.
# [2] = Acute toxicity, oral, rats; format: in vivo; settings: rat, in vivo, po; P.O., male rats, observed seven days
# Description: (§3) Acute toxicity: Male and female Wister strain rats each weighing 150 to 200 g were divided into two groups, respectively, each group consisting of ten rats, and were administered orally with some of the N-acylcarnosine aluminum compounds according to the invention. The thus treated rats were visually observed for seven days after the administration.
# rats = experiment: Acute toxicity, oral, rats; format: in vivo; settings: P.O., female rats, observed seven days; 10080 min
# Description: as §3
# Aspirin-induced ulcer = experiment: Aspirin-induced ulcer, inhibitory effect, rats; format: in vivo, rat (male Donryu strain); settings: 1,000 mg/kg, P.O.; for Ulcer index (total length of all lesions): immediately after pylorus ligation, aspirin 100 mg/kg; for % Inhibition: vs control of the same run
# Description: as §1
# Aspirin-induced ulcer: Groups of ten male Donryu strain rats each weighing 220 to 230 g were deprived of food for 24 hours. The pylorus of each rat was ligated under ether anethesia according to the method of S. Okabe et al [Jap. J. Pharmac. 24, 357-361 (1974)]. After the pylorus ligation, aspirin (100 mg/kg) was administered orally to each rat. Seven hours after the administration, each of the animals was sacrificed under ether anesthesia to remove its stomach. After collection of the gastric juice and treatment with a 1% formalin solution, the length (mm) of each lesion formed in the glandular portion was measured. The total length (mm) of all the lesions of each rat was indicated as an ulcer index. Test medicine samples were given orally immediately after the pylorus ligation.
# [3] = Rattus norvegicus, po, vs control of the same run
Molecule,Ulcer index (total area of all lesions) (Shay's ulcer),inhibition in vivo at 1000 mg/kg (Shay's ulcer; [3]) [%],"Ulcer index (total length of all lesions) (Stress ulcer; 1,000 mg/kg)","% Inhibition (Stress ulcer; 1,000 mg/kg)",Ulcer index (total length of all lesions) [1],% Inhibition [1],Ulcer index (total length of all lesions) (Histamine-induced ulcer; 300 mg/kg),% Inhibition (Histamine-induced ulcer; 300 mg/kg),Ulcer index (total length of all lesions) (Aspirin-induced ulcer),% Inhibition (Aspirin-induced ulcer),% Inhibition (Shay's ulcer; vs control of the same run),other results
"O=C(CCNC(=O)c1ccccc1)N[C@@H](Cc1c[nH]cn1)C(=O)O [H, N-benzoyl-L-carnosine aluminum salt]",1.0 ± 0.9 mm^2,67.7,,,,,,,,,,
"CCCCCCC(=O)NCCC(=O)N[C@@H](Cc1c[nH]cn1)C(=O)O [G, N-heptanoyl-L-carnosine aluminum salt]",0.9 ± 1.0 mm^2,71,,,,,,,,,,
"CC(=O)NCCC(=O)N[C@@H](Cc1c[nH]cn1)C(=O)O [B, N-acetyl-L-carnosine aluminum salt]",0.6 ± 0.4 mm^2,76,4.8 ± 2.6 mm,72.6%,6.4 ± 2.2 mm,61.9%,9.1 ± 1.9 mm,60.4%,0.6 ± 0.6 mm,96.4%,,"Ulcer index (total length of all lesions) (Stress ulcer; 300 mg/kg): 9.2 ± 3.0 mm; % Inhibition (Stress ulcer; 300 mg/kg): 47.4%; LD50 at 168 h [2]: > 10000 mg/kg; LD50 (rats): > 10,000 mg/kg"
"CCC(=O)NCCC(=O)N[C@@H](Cc1c[nH]cn1)C(=O)O [F, N-propionyl-L-carnosine aluminum salt]",0.9 ± 0.7 mm^2,,,,,,,,,,71.0%,
aluminum sucrose sulfate,0.8 ± 0.6 mm^2 and 0.9 ± 0.5 mm^2 and 0.7 ± 0.8 mm^2 and 0.8 ± 0.9 mm^2,,6.5 ± 6.0 mm and 7.3 ± 6.8 mm,56.7% and 58.3%,7.8 ± 3.0 mm and 7.4 ± 2.8 mm,52.1% and 56.0%,14.4 ± 1.5 mm and 10.7 ± 2.1 mm,40.2% and 53.5%,3.7 ± 2.1 mm and 2.0 ± 1.1 mm,79.1% and 88.1%,72.4% and 71.0% and 71.7% and 68.0%,
"COc1ccccc1C(=O)NCCC(=O)N[C@@H](Cc1c[nH]cn1)C(=O)O [I, N-(o-methoxy)benzoyl-L-carnosine aluminum salt]",1.1 ± 0.8 mm^2,64.5,,,,,,,,,,
"CCC(=O)NCCC(=O)N[C@@H](Cc1c[nH]cn1)C(=O)O [E, N-propionyl-L-carnosine aluminum salt]",0.7 ± 0.5 mm^2,77.4,,,,,,,,,,
"NC(=O)CC[C@H](N)C(=O)O [L-Glutamine, L-glutamine]",,8.3,,,9.5 ± 4.1 mm and 9.7 ± 3.9 mm,41.8% and 42.3%,,,6.0 ± 2.2 mm and 4.5 ± 1.5 mm,66.1% and 73.2%,,
"CC(=O)NCCC(=O)N[C@@H](Cc1c[nH]cn1)C(=O)O [C, N-acetyl-L-carnosine aluminum salt]",1.0 ± 0.7 mm^2,,,,,,,,,,65.5%,
"CC(=O)N[C@@H](CCC(N)=O)C(=O)O.[Al] [N-Acetyl-L-glutamine aluminum, N-acetyl-L-glutamine aluminum]",,,,,,,,,,,,"Ulcer index (total length of all lesions) (Stress ulcer; 2,000 mg/kg): 5.5 ± 4.8 mm; % Inhibition (Stress ulcer; 2,000 mg/kg): 68.6%; Ulcer index (total length of all lesions) (Histamine-induced ulcer; 2,000 mg/kg): 8.5 ± 3.0 mm; % Inhibition (Histamine-induced ulcer; 2,000 mg/kg): 63.0%; inhibition in vivo at 2000 mg/kg (Shay's ulcer; Rattus norvegicus, po, 14 h, 2,000 mg/kg, vs control of the same run): 67.7%"
"CC(=O)NCCC(=O)NC(Cc1c[nH]cn1)C(=O)O (racemic) [A, N-acetyl-DL-carnosine aluminum salt]",0.5 ± 0.5 mm^2,79.2,4.4 ± 2.2 mm,71.1%,6.5 ± 2.2 mm,60.1%,9.6 ± 1.8 mm,60.2%,0.6 ± 0.6 mm,96.6%,,"Ulcer index (total length of all lesions) (Stress ulcer; 300 mg/kg): 8.0 ± 2.8 mm; % Inhibition (Stress ulcer; 300 mg/kg): 47.4%; LD50 at 168 h [2]: > 10000 mg/kg; LD50 (rats): > 10,000 mg/kg"
"NCCC(=O)N[C@@H](Cc1c[nH]cn1)C(=O)O [L-Carnosine, L-carnosine]",,12.5,10.7 ± 2.2 mm and 12.1 ± 2.5 mm,29.6% and 30.9%,17.3 ± 3.0 mm and 17.1 ± 3.1 mm,~ 0%,17.3 ± 3.2 mm and 18.0 ± 2.7 mm,28.2% and 21.7%,,,,Ulcer index (total length of all lesions) (Stress ulcer; 300 mg/kg): 14.2 ± 3.7 mm and 16.0 ± 4.0 mm; % Inhibition (Stress ulcer; 300 mg/kg): 6.6% and 8.6%
"CC(=O)NCCC(=O)N[C@@H](Cc1c[nH]cn1)C(=O)O [D, N-acetyl-L-carnosine aluminum salt]",0.9 ± 0.9 mm^2,,,,,,,,,,69.0%,
